According to paper PMC9322123, “Design and Synthesis of New Pyrimidine-Quinolone Hybrids as Novel hLDHA Inhibitors” (Pharmaceuticals, 2022):
Entries after “also recorded” stand apart in the source; their conditions may differ. Where two headings read alike, the source gives them in different places.

Columns and labels:
hLDHA [1] = biological target: T1, hLDHA (Homo sapiens, UniProt P00338); assay: hLDHA enzymatic assay (kinetic fluorometric, pyruvate substrate, NADH co-factor); type: biochemical; conditions: for IC50: hLDHA, 1 mM pyruvate, 151 µM β-NADH, compounds 0.048–100 µM, n = 3
T1 construct: purchased Abcam
Experimental: The inhibitory activity of the pyrimidine-quinolone hybrids 10, 15, 19, and 24–31(a–c) against the hLDHA enzyme was measured by a kinetic spectrofluorometric assay.
hLDHA activity was determined throughout a fluorometric method with pyruvate as substrate and NADH co-factor, as previously reported and modified as described here: in each well, the final volume was set to 200 µL, and the final concentrations were 100 mM potassium phosphate buffer, 0.041 units/mL hLDHA (95%, specific activity >300 units/mg and concentration of 0.5 mg/mL, Abcam, Cambridge, United Kingdom), 151 µM β-NADH, 1 mM pyruvate (saturated conditions), and DMSO solutions (2%, v/v) of pure compounds at concentrations in the range of 0.048–100 µM. The reaction was initiated by the addition of pyruvate, and the NADH concentration decrease was measured for 10 min in a TECAN Infinite 200 Pro M Plex fluorescence plate reader at 28 °C, with excitation at 340 nm and emission at 460 nm. The percentage of activity for each measure was calculated by comparison between the maximum slope of each compound concentration and the maximum slope when no inhibitor (DMSO only) was in the well (100% enzymatic activity). The compound 3-[[3[(cyclopropylamino)sulfonyl]-7-(2,4-dimethoxy-5-pyrimidinyl)-4-quinolinyl]amino]-5-(3,5-difluorophenoxy)benzoic acid (GSK 2837808 A, Tocris, Minneapolis, MN, USA) was used as a positive control.
The measurements were obtained thrice, and data were expressed as the mean ± SD of n = 3 replicates for IC50 values. As-obtained data were later plotted in GraphPad Prism version 5.00 for Windows (GraphPad Software, La Jolla, CA, USA). Nonlinear regression analysis was chosen for dose response curve, representing the logarithm of inhibitor concentration vs. normalized enzymatic activity in order to calculate IC50 values.

[2] = Solubility as observed on handling; type: physicochemical
hLDHA [3] = biological target: T1, hLDHA; parameters: method as in PMID 25466195; conditions: W31, ligand of complex 4R68; cited from earlier work

SMILES	IC50 (hLDHA [1]) [µM]	other results
O=c1[nH]c2ccccc2cc1COc1ccc(Nc2nccc(-c3ccc(Cl)cc3)n2)cc1 [Compound 15, 3-((4-((4-(4-Chlorophenyl)pyrimidin-2-yl)amino)phenoxy)methyl)quinolin-2(1H)-one]	> 100	solubility (in words) [2]: highly insoluble; also recorded: problems related with solubility
O=c1[nH]c2ccccc2cc1COc1ccccc1Oc1nccc(-c2ccc(Cl)cc2)n1 [Compound 19, 3-((2-((4-(4-Chlorophenyl)pyrimidin-2-yl)oxy)phenoxy)methyl)quinolin-2(1H)-one]	> 100	–
O=c1[nH]c2ccccc2cc1CSc1ccccc1Nc1nccc(-c2ccc(Cl)cc2)n1 [Compound 24a, 3-(((2-((4-(4-Chlorophenyl)pyrimidin-2-yl)amino)phenyl)thio)methyl)quinolin-2(1H)-one]	31.5	–
O=c1[nH]c2ccc(Cl)cc2cc1CSc1ccccc1Nc1nccc(-c2ccc(Cl)cc2)n1 [Compound 24b, 6-Chloro-3-(((2-((4-(4-chlorophenyl)pyrimidin-2-yl)amino)phenyl)thio)meth-yl)quinolin-2(1H)-one]	34.8	–
COc1ccc2[nH]c(=O)c(CSc3ccccc3Nc3nccc(-c4ccc(Cl)cc4)n3)cc2c1 [Compound 24c, 3-(((2-((4-(4-Chlorophenyl)pyrimidin-2-yl)amino)phenyl)thio)methyl)-6-methoxyquinolin-2(1H)-one]	79.1	–
O=c1[nH]c2ccccc2cc1CSc1ccccc1Nc1nccc(-c2ccc(C(F)(F)F)cc2)n1 [Compound 25a, 3-(((2-((4-(4-(Trifluoromethyl)phenyl)pyrimidin-2-yl)amino)phenyl)thio)methyl)quinolin-2(1H)-one]	26.9	–
O=c1[nH]c2ccc(Cl)cc2cc1CSc1ccccc1Nc1nccc(-c2ccc(C(F)(F)F)cc2)n1 [Compound 25b, 6-Chloro-3-(((2-((4-(4-(trifluoromethyl)phenyl)pyrimidin-2-yl)amino)phenyl)thio)methyl)quinolin-2(1H)-one]	42.3	–
COc1ccc2[nH]c(=O)c(CSc3ccccc3Nc3nccc(-c4ccc(C(F)(F)F)cc4)n3)cc2c1 [Compound 25c, 6-Methoxy-3-(((2-((4-(4-(trifluoromethyl)phenyl)pyrimidin-2-yl)amino)phenyl)thio)methyl)quinolin-2(1H)-one]	71.8	–
O=c1[nH]c2ccccc2cc1CSc1ccccc1Nc1nccc(-c2ccc3ccccc3c2)n1 [Compound 26a, 3-(((2-((4-(Naphthalen-2-yl)pyrimidin-2-yl)amino)phenyl)thio)methyl)quinolin-2(1H)-one]	17.8	–
O=c1[nH]c2ccc(Cl)cc2cc1CSc1ccccc1Nc1nccc(-c2ccc3ccccc3c2)n1 [Compound 26b, 6-Chloro-3-(((2-((4-(naphthalen-2-yl)pyrimidin-2-yl)amino)phenyl)thio)me-thyl)quinolin-2(1H)-one]	20.3	–
COc1ccc2[nH]c(=O)c(CSc3ccccc3Nc3nccc(-c4ccc5ccccc5c4)n3)cc2c1 [Compound 26c, 6-Methoxy-3-(((2-((4-(naphthalen-2-yl)pyrimidin-2-yl)amino)phenyl)thio)methyl)quinolin-2(1H)-one]	27.7	–
O=c1[nH]c2ccccc2cc1CSc1ccccc1Nc1nccc(-c2ccc3c(c2)OCO3)n1 [Compound 27a, 3-(((2-((4-(Benzo[d][1,3]dioxol-5-yl)pyrimidin-2-yl)amino)phenyl)thio)methyl)quinolin-2(1H)-one]	> 100	–
O=c1[nH]c2ccc(Cl)cc2cc1CSc1ccccc1Nc1nccc(-c2ccc3c(c2)OCO3)n1 [Compound 27b, 3-(((2-((4-(Benzo[d][1,3]dioxol-5-yl)pyrimidin-2-yl)amino)phenyl)thio)methyl)-6-chloroquinolin-2(1H)-one]	89	–
COc1ccc2[nH]c(=O)c(CSc3ccccc3Nc3nccc(-c4ccc5c(c4)OCO5)n3)cc2c1 [Compound 27c, 3-(((2-((4-(Benzo[d][1,3]dioxol-5-yl)pyrimidin-2-yl)amino)phenyl)thio)methyl)-6-methoxyquinolin-2(1H)-one]	60	–
O=c1[nH]c2ccccc2cc1CSc1ccc(Nc2nccc(-c3ccc(Cl)cc3)n2)cc1 [Compound 28a, 3-(((4-((4-(4-Chlorophenyl)pyrimidin-2-yl)amino)phenyl)thio)methyl)quinolin-2(1H)-one]	> 100	–
O=c1[nH]c2ccc(Cl)cc2cc1CSc1ccc(Nc2nccc(-c3ccc(Cl)cc3)n2)cc1 [Compound 28b, 6-Chloro-3-(((4-((4-(4-chlorophenyl)pyrimidin-2-yl)amino)phenyl)thio)meth-yl)quinolin-2(1H)-one]	> 100	–
COc1ccc2[nH]c(=O)c(CSc3ccc(Nc4nccc(-c5ccc(Cl)cc5)n4)cc3)cc2c1 [Compound 28c, 3-(((4-((4-(4-Chlorophenyl)pyrimidin-2-yl)amino)phenyl)thio)methyl)-6-methoxyquinolin-2(1H)-one]	> 100	–
O=c1[nH]c2ccccc2cc1CSc1ccc(Nc2nccc(-c3ccc(C(F)(F)F)cc3)n2)cc1 [Compound 29a, 3-(((4-((4-(4-(Trifluoromethyl)phenyl)pyrimidin-2-yl)amino)phenyl)thio)methyl)quinolin-2(1H)-one]	> 100	–
O=c1[nH]c2ccc(Cl)cc2cc1CSc1ccc(Nc2nccc(-c3ccc(C(F)(F)F)cc3)n2)cc1 [Compound 29b, 6-Chloro-3-(((4-((4-(4-(trifluoromethyl)phenyl)pyrimidin-2-yl)amino)phenyl)thio)methyl)quinolin-2(1H)-one]	83.2	–
COc1ccc2[nH]c(=O)c(CSc3ccc(Nc4nccc(-c5ccc(C(F)(F)F)cc5)n4)cc3)cc2c1 [Compound 29c, 6-Methoxy-3-(((4-((4-(4-(trifluoromethyl)phenyl)pyrimidin-2-yl)amino)phenyl)thio)methyl)quinolin-2(1H)-one]	> 100	–
O=c1[nH]c2ccccc2cc1CSc1ccc(Nc2nccc(-c3ccc4ccccc4c3)n2)cc1 [Compound 30a, 3-(((4-((4-(Naphthalen-2-yl)pyrimidin-2-yl)amino)phenyl)thio)methyl)quinolin-2(1H)-one]	62.9	–
O=c1[nH]c2ccc(Cl)cc2cc1CSc1ccc(Nc2nccc(-c3ccc4ccccc4c3)n2)cc1 [Compound 30b, 6-Chloro-3-(((4-((4-(naphthalen-2-yl)pyrimidin-2-yl)amino)phenyl)thio)methyl)quinolin-2(1H)-one]	> 100	–
COc1ccc2[nH]c(=O)c(CSc3ccc(Nc4nccc(-c5ccc6ccccc6c5)n4)cc3)cc2c1 [Compound 30c, 6-Methoxy-3-(((4-((4-(naphthalen-2-yl)pyrimidin-2-yl)amino)phenyl)thio)methyl)quinolin-2(1H)-one]	> 100	–
O=c1[nH]c2ccccc2cc1CSc1ccc(Nc2nccc(-c3ccc4c(c3)OCO4)n2)cc1 [Compound 31a, 3-(((4-((4-(Benzo[d][1,3]dioxol-5-yl)pyrimidin-2-yl)amino)phenyl)thio)methyl)quinolin-2(1H)-one]	> 100	inhibitory activity against hLDHA (in words) (hLDHA [1]): inactive
O=c1[nH]c2ccc(Cl)cc2cc1CSc1ccc(Nc2nccc(-c3ccc4c(c3)OCO4)n2)cc1 [Compound 31b, 3-(((4-((4-(Benzo[d][1,3]dioxol-5-yl)pyrimidin-2-yl)amino)phenyl)thio)methyl)-6-chloroquinolin-2(1H)-one]	49.9	–
COc1ccc2[nH]c(=O)c(CSc3ccc(Nc4nccc(-c5ccc6c(c5)OCO6)n4)cc3)cc2c1 [Compound 31c, 3-(((4-((4-(Benzo[d][1,3]dioxol-5-yl)pyrimidin-2-yl)amino)phenyl)thio)methyl)-6-methoxyquinolin-2(1H)-one]	> 100	inhibitory activity against hLDHA (in words) (hLDHA [1]): inactive
O=c1[nH]c2ccccc2cc1CSc1cccc(Nc2nccc(-c3ccc4ccccc4c3)n2)c1 [Compound 35a, 3-(((3-((4-(Naphthalen-2-yl)pyrimidin-2-yl)amino)phenyl)thio)methyl)quinolin-2(1H)-one]	19.6	–
O=c1[nH]c2ccc(Cl)cc2cc1CSc1cccc(Nc2nccc(-c3ccc4ccccc4c3)n2)c1 [Compound 35b, 6-Chloro-3-(((3-((4-(naphthalen-2-yl)pyrimidin-2-yl)amino)phenyl)thio)me-thyl)quinolin-2(1H)-one]	24.6	–
COc1ccc2[nH]c(=O)c(CSc3cccc(Nc4nccc(-c5ccc6ccccc6c5)n4)c3)cc2c1 [Compound 35c, 6-Methoxy-3-(((3-((4-(naphthalen-2-yl)pyrimidin-2-yl)amino)phenyl)thio)methyl)quinolin-2(1H)-one]	50.1	–
C[C@H](OC(=O)Cc1ccc(Cl)c(SC2=C(O)C[C@@H](c3c(Cl)cccc3Cl)CC2=O)c1)c1ccccc1 [Compound W31]	–	IC50 (hLDHA [3]): 0.006 µM
